Patent US5849695A, “Parathyroid hormone analogues useful for treatment of osteoporosis and disorders of calcium meatabolism in mammals” (The Regents of the University of California, priority 1993, dated 1998)
Where two headings read alike, the source gives them in different places.

What was measured:
[1] = target: T1, PTH receptor (Canis lupus familiaris, UniProt Q9TU31); type: binding, canine
T1 construct: canine renal plasma membranes; from tissue; host or cells: canine kidney (renal plasma membranes)
T1 sequence (Q9TU31 29-595): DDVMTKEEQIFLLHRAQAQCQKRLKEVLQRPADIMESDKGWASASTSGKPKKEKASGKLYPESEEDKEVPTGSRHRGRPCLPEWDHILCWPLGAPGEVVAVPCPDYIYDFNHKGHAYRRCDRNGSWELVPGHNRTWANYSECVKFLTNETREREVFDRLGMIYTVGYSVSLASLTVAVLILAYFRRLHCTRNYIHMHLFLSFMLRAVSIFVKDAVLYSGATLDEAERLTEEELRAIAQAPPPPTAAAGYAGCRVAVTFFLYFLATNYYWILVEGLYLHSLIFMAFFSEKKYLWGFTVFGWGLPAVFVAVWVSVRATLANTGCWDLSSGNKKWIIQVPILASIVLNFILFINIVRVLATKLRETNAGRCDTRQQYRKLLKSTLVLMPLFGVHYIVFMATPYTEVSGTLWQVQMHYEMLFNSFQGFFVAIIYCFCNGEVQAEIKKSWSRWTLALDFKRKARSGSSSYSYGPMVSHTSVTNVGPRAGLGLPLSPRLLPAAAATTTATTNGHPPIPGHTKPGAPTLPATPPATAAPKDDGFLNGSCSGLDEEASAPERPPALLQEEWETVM
Protocol: (§1) Receptor binding assays were carried out in canine renal plasma membranes and in UMR 106-H5 rat osteosarcoma cells as previously described in detail (Ref. 14,32), using ^125 I-labeled PTH(1-34)amide as the radioligand. Binding potency (IC50) was quantified as the concentration of unlabeled peptide required for half-maximal displacement of the radioligand. […] Adenylate cyclase activity was assessed in canine renal membranes by the conversion of [α-32p ] ATP to [^32 P] cyclic AMP, essentially as described, except for the addition of 100 micromolar GTP (Ref. 33,34). Adenylate cyclase activity in UMR 106-H5 cells was assessed essentially as described (Ref. 35). In brief, cells were incubated with [3H]adenine 1 micro Ci/ml of serum-free MEM for two hours at 37° C. to label the endogenous ATP pool. Cells were then exposed to 0.4 mM IBMX for 10 min, followed by the appropriate peptide for an additional 10 min at ambient temperature. The cells are then scraped in 20% TCA, and [3H]cyclic AMP is isolated by the column procedure of Salomon et al. (Ref. 36). Potency in the adenylate cyclase assays (Ka) is the concentration of peptide producing half-maximal enzyme activation.

[2] = target: T1, PTH receptor; type: biochemical, canine; conditions: for RENAL MEMBRANES Canine Activity (AC*): maximally effective dose; for antagonism of PTH-stimulated adenylate cyclase: canine renal plasma membranes and UMR 106-H5 cells (FIG. 8)
Protocol: as §1

[3] = target: T2, PTH receptor (Rattus norvegicus, UniProt P25961); type: binding
T2 construct: endogenous in cells; host or cells: UMR 106-H5 rat osteosarcoma cells
T2 sequence (P25961 27-591): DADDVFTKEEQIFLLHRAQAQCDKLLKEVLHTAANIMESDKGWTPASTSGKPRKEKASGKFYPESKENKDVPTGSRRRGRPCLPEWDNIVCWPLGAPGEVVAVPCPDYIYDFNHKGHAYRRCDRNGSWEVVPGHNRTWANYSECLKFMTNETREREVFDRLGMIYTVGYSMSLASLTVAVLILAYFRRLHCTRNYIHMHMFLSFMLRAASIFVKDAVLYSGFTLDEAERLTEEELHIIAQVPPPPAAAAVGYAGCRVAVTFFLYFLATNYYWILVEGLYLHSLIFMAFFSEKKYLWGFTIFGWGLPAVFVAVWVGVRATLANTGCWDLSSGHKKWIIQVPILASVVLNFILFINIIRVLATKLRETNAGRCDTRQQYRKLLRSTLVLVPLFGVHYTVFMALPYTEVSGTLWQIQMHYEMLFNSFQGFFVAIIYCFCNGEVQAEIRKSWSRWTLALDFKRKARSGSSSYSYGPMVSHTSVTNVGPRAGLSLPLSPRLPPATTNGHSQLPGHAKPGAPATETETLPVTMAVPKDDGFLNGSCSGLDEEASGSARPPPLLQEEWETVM
Protocol: as §1

[4] = target: T2, PTH receptor; type: cell-based; conditions: for UMR106-H5 CELLS Rat Bone Activity (AC*): maximally effective dose
Protocol: as §1, with “Assays were conducted using […] cells. These assays were performed as described in Cohen et al. (1991), J. Biological Chem., 266(3), 1997 and in the Experimental section, e.g. Example 11. Receptor” for “Receptor”

[5] = target: T3, PTH receptor (Homo sapiens, UniProt Q03431); type: cell-based; set-up: In intact rat (UMR-106) and human (SaOS-2) bone cell lines; endogenous in cells; host or cells: SaOS-2 human bone (osteosarcoma) cells
T3 sequence (Q03431 27-593): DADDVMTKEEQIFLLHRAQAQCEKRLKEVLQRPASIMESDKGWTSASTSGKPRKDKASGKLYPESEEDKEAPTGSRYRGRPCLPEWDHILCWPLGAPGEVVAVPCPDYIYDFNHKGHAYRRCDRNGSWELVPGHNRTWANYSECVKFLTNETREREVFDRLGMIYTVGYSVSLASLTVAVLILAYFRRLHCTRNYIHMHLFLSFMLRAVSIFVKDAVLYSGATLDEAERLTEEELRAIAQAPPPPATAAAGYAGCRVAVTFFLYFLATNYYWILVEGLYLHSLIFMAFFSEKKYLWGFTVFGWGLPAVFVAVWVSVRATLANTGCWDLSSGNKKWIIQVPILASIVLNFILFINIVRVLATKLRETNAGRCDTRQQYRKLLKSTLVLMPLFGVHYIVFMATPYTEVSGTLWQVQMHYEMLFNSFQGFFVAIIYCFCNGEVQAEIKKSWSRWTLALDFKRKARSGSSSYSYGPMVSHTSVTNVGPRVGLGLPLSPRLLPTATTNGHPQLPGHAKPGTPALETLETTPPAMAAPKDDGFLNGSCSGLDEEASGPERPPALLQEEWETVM
Description: The renal membrane assay values listed reflect the effect of the polypeptide analogue with kidney tissue receptors. The UMR-106-H5 assay values reflect the effect of the peptide analogue with rat bone tissue receptors. The Sa05-2 assay values reflect the effect of the peptides for human bone tissue receptors.

[6] = Circular dichroism: alpha-helical content; type: physicochemical; conditions: for % HELIX TFE (30%) / % HELIX TFE (0%): Table 1, CD; for % HELIX TFE (30%): 30% trifluoroethanol; for % HELIX TFE (0%): absence of trifluoroethanol
Protocol: Far ultraviolet circular dichroism (CD) spectra were obtained in phosphate buffer (ph 7.0) at 25±1° C. in a 1.0 mm cell on an Instruments SA Jobin Yvon circular dichrograph calibrated with (+) 10-camphorsulfonic acid and epiandosterone. Peptides were analyzed at concentrations ranging from 0.1-0.3 mg/ml. The mean molar ellipticity per residue at 222 nm ([⊖]222 nm-, deg cm^2 /dmol) was used to derive estimates of alpha-helicity according to the method of Taylor and Kaiser (ref. 29).

[7] = Table 1, relative to bPTH(1-34) = 100%
[8] = Table 1, half-maximal enzyme activation, relative to bPTH(1-34) = 100%

Row | RENAL MEMBRANES Canine Activity (AC*) [2, 7] | UMR106-H5 CELLS Rat Bone Activity (AC*) [4, 7] | RENAL MEMBRANES Canine Potency (B) [1, 7] | RENAL MEMBRANES Canine Potency (AC) [2, 8] | % HELIX TFE (30%) [6] | % HELIX TFE (0%) [6] | UMR106-H5 CELLS Rat Bone Potency (B) [3, 7] | UMR106-H5 CELLS Rat Bone Potency (AC) [4, 7] | Compound | other results
1 | 100% | 100% | – | – | – | – | – | – | CC[C@H](C)[C@H](NC(=O)[C@H](CCC(=O)O)NC(=O)[C@H](CO)NC(=O)[C@@H](NC(=O)[C@H](C)N)C(C)C)C(=O)N[C@@H](CCC(N)=O)C(=O)N[C@@H](Cc1ccccc1)C(=O)N[C@@H](CCSC)C(=O)N[C@@H](Cc1c[nH]cn1)C(=O)N[C@@H](CC(N)=O)C(=O)N[C@@H](CC(C)C)C(=O)NCC(=O)N[C@@H](CCCCN)C(=O)N[C@@H](Cc1c[nH]cn1)C(=O)N[C@@H](CC(C)C)C(=O)N[C@@H](CO)C(=O)N[C@@H](CO)C(=O)N[C@@H](CCSC)C(=O)N[C@@H](CCC(=O)O)C(=O)N[C@@H](CCCNC(=N)N)C(=O)N[C@H](C(=O)N[C@@H](CCC(=O)O)C(=O)N[C@@H](Cc1c[nH]c2ccccc12)C(=O)N[C@@H](CC(C)C)C(=O)N[C@@H](CCCNC(=N)N)C(=O)N[C@@H](CCCCN)C(=O)N[C@@H](CCCCN)C(=O)N[C@@H](CC(C)C)C(=O)N[C@@H](CCC(N)=O)C(=O)N[C@@H](CC(=O)O)C(=O)N[C@H](C(=O)N[C@@H](Cc1c[nH]cn1)C(=O)N[C@@H](CC(N)=O)C(=O)N[C@@H](Cc1ccccc1)C(=O)O)C(C)C)C(C)C [bPTH (1-34), bPTH(1-34), reference compound] | RENAL MEMBRANES Canine Potency (B) [1]: 100%; RENAL MEMBRANES Canine Potency (AC) [2]: 100%; UMR106-H5 CELLS Rat Bone Potency (B) [3]: 100%; UMR106-H5 CELLS Rat Bone Potency (AC) [4]: 100%
2 | – | – | – | – | – | – | – | – | [Ala^6 ]bPTH(1-34) | potency in human bone cells versus renal membranes ([5]; human bone cells and renal membranes): equipotent
3 | – | – | – | – | – | – | – | – | [Glu^3 ]bPTH(1-34) | retention of binding potency / receptor binding activity ([1]; relative to bPTH(1-34), similar in the kidney and bone systems): less than 0.1%; calculated alpha-helical content ([6]; aqueous solvent conditions): 19%
4 | 100% | 100% | 55% | 2.5% | 84% | 35% | 9% | 75% | [His^3 ]bPTH(1-34) | potency for adenylate cyclase activation compared with renal adenylate cyclase ([4]; UMR-106-H5 cells): increased potency
5 | 78% | 95% | 14% | 1.5% | 81% | 29% | 3.5% | 14% | [Lys^3 ]bPTH(1-34) | SAOS2 CELLS Human Bone Activity (AC) [5, 7]: 100%; SAOS2 CELLS Human Bone Potency (AC) [5, 7]: 20%; bioactivity in bone cell assays versus kidney ([4]; both bone cell assays): enhanced bioactivity
6 | – | – | – | – | – | – | – | – | [Phe^3 ]bPTH(1-34) | antagonism of PTH-stimulated adenylate cyclase [2]: partial PTH antagonists
7 | – | – | – | – | – | – | – | – | [Phe^6 ]bPTH(1-34) | binding activity retained, of the activity of bPTH(1-34) ([1]; renal membranes): 1%; antagonism of PTH-stimulated adenylate cyclase [2]: inhibition; antagonism of PTH-stimulated adenylate cyclase ([2]; listed as [Phe^6 ]PTH(1-34)): partial PTH antagonists; binding activity retained, of the activity of bPTH(1-34) ([3]; osteosarcoma cells): 4%
8 | 28% | 100% | 2% | 1.2% | 99% | 34% | 0.9% | 2.5% | [Tyr^3 ]bPTH(1-34) | agonist behaviour in the adenylate cyclase assay ([2]; both the bone and kidney systems): partial agonist activity; activity in adenylate cyclase compared with renal adenylate cyclase ([4]; UMR-106-H5 cells): increased activity
